Molecular target: hNav1.7 (Homo sapiens, UniProt Q15858)
Assay: cell-based
Details: ratio of IonWorks Quattro IC50 values

Chain of hNav1.7 (Q15858 whole entry): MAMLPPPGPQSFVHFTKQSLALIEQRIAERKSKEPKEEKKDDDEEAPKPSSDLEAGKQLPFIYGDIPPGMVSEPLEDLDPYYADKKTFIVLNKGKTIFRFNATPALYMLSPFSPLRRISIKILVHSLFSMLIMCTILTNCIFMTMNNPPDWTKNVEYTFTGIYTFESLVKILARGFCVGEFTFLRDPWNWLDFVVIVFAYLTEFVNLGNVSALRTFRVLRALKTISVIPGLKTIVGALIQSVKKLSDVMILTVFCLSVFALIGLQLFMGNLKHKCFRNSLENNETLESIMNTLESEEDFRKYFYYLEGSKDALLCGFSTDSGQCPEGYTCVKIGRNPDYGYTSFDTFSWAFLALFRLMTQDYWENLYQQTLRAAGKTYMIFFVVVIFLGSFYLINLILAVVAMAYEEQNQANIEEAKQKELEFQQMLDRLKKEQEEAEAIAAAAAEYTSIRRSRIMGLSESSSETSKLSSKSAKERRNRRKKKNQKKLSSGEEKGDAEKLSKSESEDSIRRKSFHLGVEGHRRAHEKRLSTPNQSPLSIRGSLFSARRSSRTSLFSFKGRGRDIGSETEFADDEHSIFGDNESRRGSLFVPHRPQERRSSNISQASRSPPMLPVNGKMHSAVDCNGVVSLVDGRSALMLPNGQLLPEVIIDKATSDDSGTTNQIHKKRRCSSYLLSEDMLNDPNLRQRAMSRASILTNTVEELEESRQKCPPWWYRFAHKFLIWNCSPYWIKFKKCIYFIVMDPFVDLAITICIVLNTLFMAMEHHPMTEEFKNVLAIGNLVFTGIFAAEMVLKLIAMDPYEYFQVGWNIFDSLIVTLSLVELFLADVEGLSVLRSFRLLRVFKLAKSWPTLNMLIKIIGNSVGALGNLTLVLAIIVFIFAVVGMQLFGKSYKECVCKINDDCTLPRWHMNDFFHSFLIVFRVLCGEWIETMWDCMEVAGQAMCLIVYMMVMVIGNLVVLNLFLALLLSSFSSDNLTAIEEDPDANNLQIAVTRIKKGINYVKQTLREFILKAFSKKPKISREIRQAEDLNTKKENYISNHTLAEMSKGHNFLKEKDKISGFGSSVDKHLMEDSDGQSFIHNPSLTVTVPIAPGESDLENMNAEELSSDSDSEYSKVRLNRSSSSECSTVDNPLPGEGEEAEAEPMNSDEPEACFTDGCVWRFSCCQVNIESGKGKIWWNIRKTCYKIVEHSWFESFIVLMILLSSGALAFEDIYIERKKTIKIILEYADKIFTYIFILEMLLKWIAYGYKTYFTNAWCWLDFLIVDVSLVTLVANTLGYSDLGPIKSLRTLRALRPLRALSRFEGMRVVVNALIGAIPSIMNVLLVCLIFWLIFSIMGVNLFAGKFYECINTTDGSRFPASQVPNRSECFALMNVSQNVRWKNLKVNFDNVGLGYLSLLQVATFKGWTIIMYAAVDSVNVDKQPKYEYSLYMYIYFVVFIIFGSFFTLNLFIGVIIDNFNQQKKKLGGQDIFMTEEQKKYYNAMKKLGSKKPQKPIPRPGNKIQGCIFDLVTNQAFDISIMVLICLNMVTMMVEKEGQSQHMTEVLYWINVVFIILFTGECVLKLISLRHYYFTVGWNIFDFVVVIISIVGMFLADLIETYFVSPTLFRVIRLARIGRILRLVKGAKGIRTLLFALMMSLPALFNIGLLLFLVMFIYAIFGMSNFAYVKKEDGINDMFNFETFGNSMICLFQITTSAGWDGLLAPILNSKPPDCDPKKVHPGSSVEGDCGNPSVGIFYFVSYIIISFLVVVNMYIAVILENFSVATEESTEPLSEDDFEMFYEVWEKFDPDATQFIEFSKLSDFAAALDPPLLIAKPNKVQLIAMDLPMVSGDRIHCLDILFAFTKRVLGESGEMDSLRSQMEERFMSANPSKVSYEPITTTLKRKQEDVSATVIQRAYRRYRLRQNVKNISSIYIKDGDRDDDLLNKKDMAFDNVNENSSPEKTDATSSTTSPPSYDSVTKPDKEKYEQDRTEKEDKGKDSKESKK

SMILES | Nav1.4/Nav1.7 (Nav1.4 over Nav1.7) | Nav1.4/Nav1.7 (Table 8)
CCC[C@@H]1NC(=O)[C@H](Cc2c[nH]c3ccccc23)NC(=O)[C@H](CCCCN)NC(=O)[C@H](CCC(N)=O)NC(=O)[C@@H](NC(=O)[C@@H](N)Cc2ccc(O)cc2)CSSC[C@@H]2NC(=O)[C@@H]3CSSC[C@@H](C(=O)N[C@@H](CCCNC(=N)N)C(=O)N[C@@H](CCCCN)C(=O)N[C@H](C(=O)N[C@H](C(N)=O)[C@@H](C)CC)[C@@H](C)CC)NC(=O)[C@H](Cc4c[nH]c5ccccc45)NC(=O)[C@H](CC(C)C)NC(=O)[C@H](CCCCN)NC(=O)[C@H](CSSC[C@H](NC(=O)[C@H]([C@@H](C)O)NC(=O)[C@H](Cc4c[nH]c5ccccc45)NC1=O)C(=O)N[C@@H](CC(=O)O)C(=O)N[C@@H](CO)C(=O)N[C@@H](CCCCN)C(=O)N[C@@H](CCCNC(=N)N)C(=O)N[C@@H](C)C(=O)N3)NC(=O)[C@H](CCC(=O)O)NC(=O)[C@H](CC(C)C)NC(=O)CNC(=O)[C@H](CCC(=O)O)NC2=O [compound 111] | 7 | 
CC[C@H](C)[C@H](NC(=O)[C@H](CC(C)C)NC(=O)[C@H](CCCCN)NC(=O)[C@H](CCCNC(=N)N)NC(=O)[C@@H]1CSSC[C@@H]2NC(=O)[C@H](C)NC(=O)[C@H](CCCNC(=N)N)NC(=O)[C@H](CCCCN)NC(=O)[C@H](CO)NC(=O)[C@H](CC(=O)O)NC(=O)[C@@H]3CSSC[C@H](NC(=O)[C@H](CCC(=O)O)NC(=O)[C@H](CC(C)C)NC(=O)CNC(=O)[C@H](CCC(=O)O)NC(=O)[C@H](CSSC[C@H](NC(=O)[C@@H](N)Cc4ccc(O)cc4)C(=O)N[C@@H](CCC(N)=O)C(=O)N[C@@H](CCCCN)C(=O)N[C@@H](Cc4c[nH]c5ccccc45)C(=O)N[C@@H](CCSC)C(=O)N[C@@H](Cc4c[nH]c5ccccc45)C(=O)N[C@@H]([C@@H](C)O)C(=O)N3)NC2=O)C(=O)N[C@@H](CCCCN)C(=O)N[C@@H](CC(C)C)C(=O)N[C@@H](Cc2c[nH]c3ccccc23)C(=O)N1)C(N)=O [compound 132] | 12 | 
CC[C@H](C)[C@H](NC(=O)[C@H](Cc1ccc(C(=O)O)cc1)NC(=O)[C@H](CCCCN)NC(=O)[C@H](CCCNC(=N)N)NC(=O)[C@@H]1CSSC[C@@H]2NC(=O)[C@H](C)NC(=O)[C@H](CCCNC(=N)N)NC(=O)[C@H](CCCCN)NC(=O)[C@H](CO)NC(=O)[C@H](CC(=O)O)NC(=O)[C@@H]3CSSC[C@H](NC(=O)[C@H](CCC(=O)O)NC(=O)[C@H](CC(C)C)NC(=O)CNC(=O)[C@H](CCC(=O)O)NC(=O)[C@H](CSSC[C@H](NC(=O)[C@@H](N)Cc4ccc(O)cc4)C(=O)N[C@@H](CCC(N)=O)C(=O)N[C@@H](CCCCN)C(=O)N[C@@H](Cc4c[nH]c5ccccc45)C(=O)N[C@@H](CCSC)C(=O)N[C@@H](Cc4c[nH]c5ccccc45)C(=O)N[C@@H]([C@@H](C)O)C(=O)N3)NC2=O)C(=O)N[C@@H](CCCCN)C(=O)N[C@@H](CC(C)C)C(=O)N[C@@H](Cc2c[nH]c3ccccc23)C(=O)N1)C(N)=O [compound 127] | 2 | 
CC[C@H](C)[C@H](NC(=O)[C@H](CC(=O)O)NC(=O)[C@H](CCCCN)NC(=O)[C@H](CCCNC(=N)N)NC(=O)[C@@H]1CSSC[C@@H]2NC(=O)[C@H](C)NC(=O)[C@H](CCCNC(=N)N)NC(=O)[C@H](CCCCN)NC(=O)[C@H](CO)NC(=O)[C@H](CC(=O)O)NC(=O)[C@@H]3CSSC[C@H](NC(=O)[C@H](CCC(=O)O)NC(=O)[C@H](CC(C)C)NC(=O)CNC(=O)[C@H](CCC(=O)O)NC(=O)[C@H](CSSC[C@H](NC(=O)[C@@H](N)Cc4ccc(O)cc4)C(=O)N[C@@H](CCC(N)=O)C(=O)N[C@@H](CCCCN)C(=O)N[C@@H](Cc4c[nH]c5ccccc45)C(=O)N[C@@H](CCSC)C(=O)N[C@@H](Cc4c[nH]c5ccccc45)C(=O)N[C@@H]([C@@H](C)O)C(=O)N3)NC2=O)C(=O)N[C@@H](CCCCN)C(=O)N[C@@H](CC(C)C)C(=O)N[C@@H](Cc2c[nH]c3ccccc23)C(=O)N1)C(N)=O [compound 128] | 4 | 
CC[C@H](C)[C@H](NC(=O)[C@@H](NC(=O)[C@H](CCCCN)NC(=O)[C@H](CCCNC(=N)N)NC(=O)[C@@H]1CSSC[C@@H]2NC(=O)[C@H](C)NC(=O)[C@H](CCCNC(=N)N)NC(=O)[C@H](CCCCN)NC(=O)[C@H](CO)NC(=O)[C@H](CC(=O)O)NC(=O)[C@@H]3CSSC[C@H](NC(=O)[C@H]([C@@H](C)CC)NC(=O)[C@H](CC(C)C)NC(=O)CNC(=O)[C@H](CCC(=O)O)NC(=O)[C@H](CSSC[C@H](NC(=O)[C@@H](N)Cc4ccc(O)cc4)C(=O)N[C@@H](CCC(N)=O)C(=O)N[C@@H](CCCCN)C(=O)N[C@@H](Cc4c[nH]c5ccccc45)C(=O)N[C@@H](CCSC)C(=O)N[C@@H](Cc4c[nH]c5ccccc45)C(=O)N[C@@H]([C@@H](C)O)C(=O)N3)NC2=O)C(=O)N[C@@H](CCCCN)C(=O)N[C@@H](CC(C)C)C(=O)N[C@@H](Cc2c[nH]c3ccccc23)C(=O)N1)[C@@H](C)CC)C(N)=O [compound 118] | 15 | 
CC[C@H](C)[C@H](NC(=O)[C@H](Cc1ccc(O)cc1)NC(=O)[C@H](CCCCN)NC(=O)[C@H](CCCNC(=N)N)NC(=O)[C@@H]1CSSC[C@@H]2NC(=O)[C@H](C)NC(=O)[C@H](CCCNC(=N)N)NC(=O)[C@H](CCCCN)NC(=O)[C@H](CO)NC(=O)[C@H](CC(=O)O)NC(=O)[C@@H]3CSSC[C@H](NC(=O)[C@H](CCC(=O)O)NC(=O)[C@H](CC(C)C)NC(=O)CNC(=O)[C@H](CCC(=O)O)NC(=O)[C@H](CSSC[C@H](NC(=O)[C@@H](N)Cc4ccc(O)cc4)C(=O)N[C@@H](CCC(N)=O)C(=O)N[C@@H](CCCCN)C(=O)N[C@@H](Cc4c[nH]c5ccccc45)C(=O)N[C@@H](CCSC)C(=O)N[C@@H](CC(N)=O)C(=O)N[C@@H]([C@@H](C)O)C(=O)N3)NC2=O)C(=O)N[C@@H](CCCCN)C(=O)N[C@@H](CC(C)C)C(=O)N[C@@H](Cc2c[nH]c3ccccc23)C(=O)N1)C(N)=O [compound 215] |  | 1
CC[C@H](C)[C@H](NC(=O)[C@@H](NC(=O)[C@H](CCCCN)NC(=O)[C@H](CCCNC(=N)N)NC(=O)[C@@H]1CSSC[C@@H]2NC(=O)[C@H](C)NC(=O)[C@H](CCCNC(=N)N)NC(=O)[C@H](CCCCN)NC(=O)[C@H](CO)NC(=O)[C@H](CC(=O)O)NC(=O)[C@@H]3CSSC[C@H](NC(=O)[C@H](CC(C)C)NC(=O)[C@H](CC(C)C)NC(=O)CNC(=O)[C@H](CCC(=O)O)NC(=O)[C@H](CSSC[C@H](NC(=O)[C@@H](N)Cc4ccc(O)cc4)C(=O)N[C@@H](CCC(N)=O)C(=O)N[C@@H](CCCCN)C(=O)N[C@@H](Cc4c[nH]c5ccccc45)C(=O)N[C@@H](CCSC)C(=O)N[C@@H](Cc4c[nH]c5ccccc45)C(=O)N[C@@H]([C@@H](C)O)C(=O)N3)NC2=O)C(=O)N[C@@H](CCCCN)C(=O)N[C@@H](CC(C)C)C(=O)N[C@@H](Cc2c[nH]c3ccccc23)C(=O)N1)[C@@H](C)CC)C(N)=O [compound 119] | 14 | 
CC[C@H](C)[C@H](NC(=O)[C@@H](NC(=O)[C@H](CCCCN)NC(=O)[C@H](CCCNC(=N)N)NC(=O)[C@@H]1CSSC[C@@H]2NC(=O)[C@H](C)NC(=O)[C@H](CCCNC(=N)N)NC(=O)[C@H](CCCCN)NC(=O)[C@H](CO)NC(=O)[C@H](CC(=O)O)NC(=O)[C@@H]3CSSC[C@H](NC(=O)[C@H](CO)NC(=O)[C@H](CC(C)C)NC(=O)CNC(=O)[C@H](CCC(=O)O)NC(=O)[C@H](CSSC[C@H](NC(=O)[C@@H](N)Cc4ccc(O)cc4)C(=O)N[C@@H](CCC(N)=O)C(=O)N[C@@H](CCCCN)C(=O)N[C@@H](Cc4c[nH]c5ccccc45)C(=O)N[C@@H](CCSC)C(=O)N[C@@H](Cc4c[nH]c5ccccc45)C(=O)N[C@@H]([C@@H](C)O)C(=O)N3)NC2=O)C(=O)N[C@@H](CCCCN)C(=O)N[C@@H](CC(C)C)C(=O)N[C@@H](Cc2c[nH]c3ccccc23)C(=O)N1)[C@@H](C)CC)C(N)=O [compound 125] | 17 | 

Source: patent publication US10344060B2 (priority 2013, dated 2019)
